Experimental data taken from patent publication US20230106943A1, “ENGINEERED ANTIMICROBIAL PEPTIDES AND USAGE THEREOF” (Peptilogics, Inc., priority 2021, published 2023).
Marks after values point to notes of the source that are not given here. No end group written: not given here.

Assay: Example 4 stability of concentrated solutions: HPLC-UV Assay/RS (method 78917)
Assay type: physicochemical
Details: for HPLC-UV Assay / Related Substances Purity / Related Substances Total Impurities: 81.4 mg/mL solution
Procedure: The peptide formulation of SEQ ID NO: 1 dissolved in a saline solution with a pH of 5.0±0.1 was tested for stability under either −20° C. or 40° C. with 75% relative humidity (RH). […]

[1] = 36.7 mg/mL solution, −20° C., 1 Month
[2] = 36.7 mg/mL solution, −20° C., 2 Month
[3] = 36.7 mg/mL solution, −20° C., 3 Month
[4] = 36.7 mg/mL solution, −20° C., 6 Month
[5] = 36.7 mg/mL solution, −20° C., 9 Month
[6] = 72.4 mg/mL solution, 40° C. and 75% RH, 1 Month
[7] = 72.4 mg/mL solution, 40° C. and 75% RH, 2 Month
[8] = 72.4 mg/mL solution, 40° C. and 75% RH, 3 Month
[9] = 72.4 mg/mL solution, 40° C. and 75% RH, 6 Month
[10] = 72.4 mg/mL solution, −20° C., 0 Month
[11] = 72.4 mg/mL solution, −20° C., 1 Month
[12] = 72.4 mg/mL solution, −20° C., 2 Month
[13] = 72.4 mg/mL solution, −20° C., 3 Month
[14] = 72.4 mg/mL solution, −20° C., 6 Month
[15] = 72.4 mg/mL solution, −20° C., 9 Month

RRWVRRVRRVWRRVVRVVRRWVRR-NH2 [SEQ ID NO: 1]
SEQ ID NO: 1 % area (Inj-1) [1]: 99.13%
SEQ ID NO: 1 % area (Inj-2) [1]: 99.12%
SEQ ID NO: 1 Mean % Area [1]: 99.1%
HPLC-UV Assay/RS % Assay [2]: 103.2%
HPLC-UV Assay/RS % Purity [2]: 99%
HPLC-UV Assay/RS % Total Impurities [2]: 0.9%
HPLC-UV Assay/RS Impurities RRT/%, RRT 1.02 [2]: 1.02/0.9%
HPLC-UV Assay/RS % Assay [3]: 101.7%
HPLC-UV Assay/RS % Purity [3]: 99%
HPLC-UV Assay/RS % Total Impurities [3]: 0.9%
HPLC-UV Assay/RS Impurities RRT/%, RRT 1.02 [3]: 1.02/0.9%
HPLC-UV Assay/RS % Assay [4]: 99.8%
HPLC-UV Assay/RS % Purity [4]: 99%
HPLC-UV Assay/RS % Total Impurities [4]: 0.9%
HPLC-UV Assay/RS Impurities RRT/%, RRT 1.02 [4]: 1.02/0.9%
HPLC-UV Assay/RS % Assay [5]: 96.9%
HPLC-UV Assay/RS % Purity [5]: 100%
HPLC-UV Assay/RS % Total Impurities [5]: 0.3%
HPLC-UV Assay/RS Impurities RRT/%, RRT 1.01 [5]: 1.01/0.3%
% Purity [6]: 99%
% Total Impurities [6]: 1.1%
HPLC-UV % Assay [6]: 95.9%
RRT 1.02 impurity % area (Inj-1) [6]: 0.92 % area
RRT 1.02 impurity % area (Inj-2) [6]: 0.90 % area
RRT 1.02 impurity Mean % Area [6]: 0.9 % Area
RRT 1.32 impurity % area (Inj-1) [6]: 0.17 % area
RRT 1.32 impurity % area (Inj-2) [6]: 0.18 % area
RRT 1.32 impurity Mean % Area [6]: 0.2 % Area
SEQ ID NO: 1 peak % area (Inj-1) [6]: 98.91 % area
SEQ ID NO: 1 peak % area (Inj-2) [6]: 98.92 % area
SEQ ID NO: 1 peak Mean % Area [6]: 98.9 % Area
% Purity [7]: 99%
% Total Impurities [7]: 1.5%
HPLC-UV % Assay [7]: 98.4%
% Purity [8]: 98%
% Total Impurities [8]: 1.8%
HPLC-UV % Assay [8]: 90.5%
% Purity [9]: 96%
% Total Impurities [9]: 3.6%
HPLC-UV % Assay [9]: 87.0* %
% Puritvy [10]: 99.1%
% Total Impurities [10]: 1.0%
HPLC-UV % Assay [10]: 94.2%
RRT 1.02 impurity % area (Inj-1) [10]: 0.97 % area
RRT 1.02 impurity % area (Inj-2) [10]: 0.93 % area
RRT 1.02 impurity Mean % Area [10]: 1.0 % Area
SEQ ID NO: 1 peak % area (Inj-1) [10]: 99.03 % area
SEQ ID NO: 1 peak % area (Inj-2) [10]: 99.07 % area
SEQ ID NO: 1 peak Mean % Area [10]: 99.1 % Area
% Puritvy [11]: 99%
HPLC-UV % Assay [11]: 97.7%
RRT 1.02 impurity % area (Inj-1) [11]: 0.88 % area
RRT 1.02 impurity % area (Inj-2) [11]: 0.87 % area
RRT 1.02 impurity Mean % Area [11]: 0.9 % Area
SEQ ID NO: 1 peak % area (Inj-1) [11]: 99.12 % area
SEQ ID NO: 1 peak % area (Inj-2) [11]: 99.13 % area
SEQ ID NO: 1 peak Mean % Area [11]: 99.1 % Area
Total % Impurities [11]: 0.9%
% Purity [12]: 99%
% Total Impurities [12]: 0.9%
HPLC-UV % Assay [12]: 101.1%
% Purity [13]: 99%
% Total Impurities [13]: 1.0%
HPLC-UV % Assay [13]: 97.4%
% Purity [14]: 99%
% Total Impurities [14]: 0.9%
HPLC-UV % Assay [14]: 95.1%
% Purity [15]: 100%
% Total Impurities [15]: 0.5%
HPLC-UV % Assay [15]: 95.9%
HPLC-UV Assay (40° C. and 75% RH, 1 Month): 102.5 % LC
Related Substances Purity (40° C. and 75% RH, 1 Month): 98%
Related Substances Total Impurities (40° C. and 75% RH, 1 Month): 1.7%
HPLC-UV Assay (40° C. and 75% RH, 2 Month): 102.6 % LC
Related Substances Purity (40° C. and 75% RH, 2 Month): 98%
Related Substances Total Impurities (40° C. and 75% RH, 2 Month): 2.4%
HPLC-UV Assay (40° C. and 75% RH, 3 Month): 92.0♦ % LC
Related Substances Purity (40° C. and 75% RH, 3 Month): 97%
Related Substances Total Impurities (40° C. and 75% RH, 3 Month): 2.6%
HPLC-UV Assay (−20° C., 0 Month): 108.6 % LC
Related Substances Purity (−20° C., 0 Month): 99%
Related Substances Total Impurities (−20° C., 0 Month): 0.9%
HPLC-UV Assay (−20° C., 1 Month): 103.8 % LC
Related Substances Purity (−20° C., 1 Month): 99%
Related Substances Total Impurities (−20° C., 1 Month): 1.0%
HPLC-UV Assay (−20° C., 2 Month): 107.8 % LC
Related Substances Purity (−20° C., 2 Month): 99%
Related Substances Total Impurities (−20° C., 2 Month): 0.9%
HPLC-UV Assay (−20° C., 3 Month): 104.7 % LC
Related Substances Purity (−20° C., 3 Month): 100%
Related Substances Total Impurities (−20° C., 3 Month): 0.3%
